According to patent US11786495B2 (priority 2021, dated 2023):
Where a name gives a salt, the structure may show the parent alone.

Assays:
[1] = 70 kg man, estimated, extrapolated from animal models; cited from earlier work
[2] = TEC vs. Lipinski criteria for CNS drug like properties; conditions: four criteria: MW, LogP, HBD, HBA
[3] = test system: beta amyloid protein; conditions: varying concentrations of sodium citrate; thioflavin T positive aggregates; cited from earlier work
[4] = model of spinal stenosis; cited from earlier work

CCOC(=O)CC(O)(CC(=O)OCC)C(=O)OCC [TEC, Triethyl citrate]
LD50 [1]: ~500 cc | Lipinski criteria met for a CNS drug [2]: Three out of four

O=C([O-])CC(O)(CC(=O)[O-])C(=O)[O-].[Na+].[Na+].[Na+] [sodium citrate]
Dissolution of calcium-produced beta amyloid aggregates [3]: aggregates dissolve in response to citrate concentration

O=C(O)CC(O)(CC(=O)O)C(=O)O [Citrate]
Bone calcium [4]: decrease bone calcium
